Experimental findings from patent publication US7262325B2, “Method of preparing salicylamides” (Emisphere Technologies, Inc., priority 2000, dated 2007) are described below.

The text on this data set:
A preferred base for such an alkylation reaction is sodium carbonate. […] The water content of the reaction mixture may also be reduced by performing the reaction in a low pressure atmosphere (e.g a vacuum).

Regarding `O=c1[n-]c(=O)c2ccccc2o1.[Na+]` [carsalam-sodium], the “solubility in DMAC” value is on record as “about 6%”.
